Test results: PMC8766875 (Nature biotechnology, 2021)
Values belong to the compound of their own block, whether it stands above or below them.

How the values were obtained:
swine = experiment: Pharmacodynamic response in dosed swine; type: in vivo
[1] = set-up: species or system swine (female Yorkshire); conditions: in vivo
[2] = cited from earlier work
[3] = In vivo pharmacokinetics of insulin and GLP-1 analog in swine; conditions: removed from dataset
[4] = 0.24 mg, injection (intramuscular) and L-SOMA groups

systemic uptake after endoscopic gavage (negative control) [1]: negligible uptake
Compound: CNC[C@H](O)c1ccc(O)c(O)c1 [epinephrine]
blood glucose response (swine; [4]): rapid rise
heart rate response (swine; [4]): rapid rise in heart rate

Compound: adalimumab
systemic uptake after endoscopic gavage (negative control) [1]: negligible uptake

Compound: GLP-1
ability to traverse the stomach lining for systemic uptake ([2]; in vivo): severely limited ability
bioavailability when using a permeation enhancer ([2]; not told): approximately 1%

Compound: semaglutide
oral bioavailability ([2]; in vivo, po): approximately 1%

Compound: recombinant human insulin
plasma glucose response (swine; 4 IU, injection and L-SOMA groups): immediate hypoglycemic onset
plasma insulin level at t=0 ([3]; one L-SOMA-dosed swine, possible sample contamination): 41.6 pM
peak plasma level ([3]; same single L-SOMA-dosed swine, at 45 minutes): 136 pM
